Results taken from patent EP3290412A1, “HIV-1 NUCLEOCAPSID INHIBITORS” (Università degli Studi di Siena, priority 2016, dated 2018).
Marks after values point to notes of the source that are not given here.

Columns and labels:
[1] = system: NIH Catalogue Number: 12465; conditions: cited from earlier work; for Level of resistance: PI resistant strain 12465; for Fold change: strain 12465, resistant virus IC50 to wild-type reference virus IC50 ratio, cut-off in brackets
[2] = system: NIH Catalogue Number: 11808; conditions: cited from earlier work; for Level of resistance: PI resistant strain 11808; for Fold change: strain 11808, resistant virus IC50 to wild-type reference virus IC50 ratio, cut-off in brackets
[3] = system: NIH Catalogue Number: 7400; conditions: cited from earlier work; for Level of resistance: NRTI resistant strain 7400; for Fold change: strain 7400, resistant virus IC50 to wild-type reference virus IC50 ratio, cut-off in brackets
[4] = system: NIH Catalogue Number: 7401; conditions: cited from earlier work; for Level of resistance: NRTI resistant strain 7401; for Fold change: strain 7401, resistant virus IC50 to wild-type reference virus IC50 ratio, cut-off in brackets
[5] = target: NC(11-55) (Human immunodeficiency virus type 1, UniProt P12493); assay: NC inhibition assay (NC-induced cTAR DNA destabilization, fluorescence); assay type: biochemical, HIV-1; conditions: for IC50: cTAR DNA 0.1 µM, 1 µM NC(11-55), 20 °C, pH 7.5, read-out: NC inhibition IC50; for inhibition at 100 µM: single point screening, positive = >25% inhibition at 100µM
Description: The NC inhibition assay is based on the nucleic acid chaperone activity of the NC protein. NC destabilizes the secondary structure of cTAR DNA, the complementary sequence of the transactivation response element, which is involved in minus-strand DNA transfer during reverse transcription. In the assay, the cTAR sequence from the HIV-1 Mal strain (Bernacchi et al, J Mol Biol, 2002) is labeled with a dye (Alexa488 fluorophore) and a quencher 4-(4'-dimethylaminophenylazo)benzoic acid (Dabcyl) at its 5' and 3' ends, respectively. In the absence of destabilization, the close proximity of both cTAR ends results in a strong fluorescence quenching of the dye emission by the Dabcyl group. NC(11-55) added to cTAR at a ratio of 10 NC/cTAR melts the bottom of the cTAR stem, which increases the distance between the dye and the quencher and as a result increases the dye fluorescence signal [Shvadchak et al, (2009) Identification by high throughput screening of small compounds inhibiting the nucleic acid destabilization activity of the HIV-1 nucleocapsid protein. Biochimie, 916-923]. NCIs are expected to prevent the NC-induced destabilization of cTAR and thus reverse the NC-induced increase in the fluorescence of the labeled cTAR. The activity of the inhibitor is thus evaluated from the ratio of the fluorescence intensity observed in the presence of NC with the molecule to the one in the absence of the compound.
The doubly labelled cTAR DNA oligonucleotides (55nt) were synthesised and purified by IBA GmbH Nucleic Acids Product Supply (Göttingen, Germany). Extinction coefficient at 260 nm of 5.73 x 10^5 M^-1 cm^-1 was used to determine the concentration of cTAR.
The NC(11-55) peptide (Avilov et al, Antimicrob Agents Chemother, 2012) was synthesized by solid-phase peptide synthesis on a 433A synthesizer (ABI, Foster City, CA) as previously described [De Rocquigny H, (1991) First large scale chemical synthesis of the 72 amino acid HIV-1 nucleocapsid protein NCp7 in an active form. Biochem Biophys Res Commun., 1010-1018]. The peptide was stored lyophilized and was resuspended in water before use. The concentration of peptide was determined by using an extinction coefficient of 5.7 x 10^3 M^-1 cm^-1 at 280 nm. Next, 2.5 molar equivalents of ZnSO4 were added and pH was raised to its final value by adding buffer.
All experiments were performed at 20 °C in 25 mM Tris-HCl (pH 7.5), 30 mM NaCl, and 0.2 mM MgCl2. To evaluate the inhibition activity of compounds on NC-induced cTAR destabilization, cTAR DNA (0.1 µM) was preincubated with 1 µM NC(11-55) (molar ratio NC:cTAR = 10:1) for 15 min at room temperature before addition of compound. For single point screening, all compounds were tested at three final concentrations: 1 µM, 10 µM and 100 µM. For the IC50 determination, inhibition of NC-induced cTAR melting was monitored through addition of increasing concentrations of the selected molecules to the pre-formed NC(11-55)-cTAR complex. After the addition of compound, the mixture was incubated for 15 min at room temperature before the reading. The fluorescence signal was recorded with a plate reader Xenius (SAFAS Monaco) or Fluoromax 3 spectrofluorometer (Horiba Jobin-Yvon), and the excitation and emission wavelengths were 480 and 520 nm, respectively. The spectra were corrected for dilution, buffer fluorescence and screening effect (when it was required). In order to check the occurrence of aggregation, we performed additional reading of absorption with the plate reader Xenius (SAFAS Monaco) or Cary 4000 spectrophotometer (Agilent). […]

[6] = system: HIV-1 reference strain NL4-3; assay: BiCycle assay (MT-2 then TZM-bl cells); assay type: cell-based; conditions: Human immunodeficiency virus 1, NL43, TZM-bl, read-out: BiCycle IC50 nM
Experimental: BiCycle Assay is cell based assay allowing the evaluation of the antiviral activity of HIV-1 inhibitors on the whole replication cycle of HIV-1. The assay consists in a first round of infection of the T-cell line MT-2 followed by infection of TZM-bl cells. MT-2 cells were seeded at a concentration of 50,000 cells/well in a 96-well plate and infected with the HIV-1 reference strain NL4-3 in presence of five-fold dilutions of the investigational compounds. After 72 hours, 50 µl of supernatant from each well, containing the virus produced in the first round of infection, were used to infect TZM-bl cells seeded in a 96-plate well at a concentration of 30,000 cells/well. Two days later, cells were lysed adding 40 µl of Glo Lysis Buffer (Promega) to each well for 5 minutes, then 40 µl of Brighy-Glo Luciferase Reagent (Promega) were added to each well for relative luminescence units (RLU) counting using Glo-Max Multi Detection System (Promega). RLU values from each well were elaborated using the GraphPad v5.0 software to calculate the IC50 of each compound.

[7] = target: T1, full length (1-55) HIV-1 NCp7 (Human immunodeficiency virus type 1 group M subtype B, UniProt P12493); assay: Electromobility Shift Assay (EMSA), competition for ssDNA binding; conditions: NCp7 300 nM, M13mp18 ssDNA; positive = >25% inhibition at 100µM
T1 construct: recombinant full length (1-55) HIV-1 NCp7 proteins; made in house
Description: The assay used a recombinant full length (1-55) HIV-1 NCp7 proteins based on the NL4-3 sequence (GenBank accession number AF324493). The protein was expressed and purified as described in [Carteau, S., Gorelick, R. J. & Bushman, F. D. Coupled integration of human immunodeficiency virus type 1 cDNA ends by purified integrase in vitro: stimulation by the viral nucleocapsid protein. Journal of virology 73, 6670-6679 (1999)].
Competition for single-stranded (ss) DNA binding was realized by mixing 1 µL of serial dilutions of NC inhibitors (diluted in DMSO) with 44 µL of NCp7 (300 nM) in a reaction buffer (20 mM Tris-HCl pH 7.4, 2 mM MgCl2, 100 mM NaCl, 1 mM DTT). 5 µL of a 10 ng/µL (4 nM) solution of M13mp18 ssDNA (BayouBiolabs) were then added and the tubes were incubated for 25 minutes at 37 °C. The reaction was terminated by chilling the tubes on ice followed by the addition of 5 µL of a loading buffer (30% glycerol, 0.01% xylene cyanol, 10 mM Tris-HCl pH 7.4). Samples were then resolved on 25 cm-long, 1% (w/v) agarose gels (SeaKem LE Agarose, Lonza) in 0.5x TBE. Gels were run in a Sub-Cell GT cuvette (BioRad) for 18 h at room temperature at 3 V/cm, stained with SybrGold (Molecular Probes) and scanned for fluorescence using a Typhoon 8600 (GE Healthcare). The experiments were performed in triplicate. Competition efficiency was realized by measuring the relative distance in pixels between the unbound ssDNA control, the NCp7-bound ssDNA control and the bound ssDNA for each points of the titration with the ImageQuant software. The IC50 was estimated as the NC inhibitors concentrations for which the bound ssDNA migrated at 50% of the distance separating the bound from the unbound ssDNA.

[8] = system: HIV-1 reference strain NL4-3; assay: MonoCycle assay (TZM-bl cells); assay type: cell-based; conditions: Human immunodeficiency virus 1, NL43, TZM-bl, 48 h, read-out: Mono Cycle IC50 nM
Experimental: MonoCycle assay is a cell based assay allowing the evaluation of antiviral activity of HIV-1 inhibitors targeting the early steps of HIV-1 life cycle such as entry, uncoating of viral particles, reverse transcription and integration. The assay consists in the infection of TZM-bl cells (20,000/well) with the HIV-1 reference strain NL4-3 in presence of serial five-fold dilutions of the investigational inhibitors. After 48 hours, cells were lysed adding 40 µl of Glo Lysis Buffer (Promega) to each well for 5 minutes, then 40 µl of Brighy-Glo Luciferase Reagent (Promega) were added to each well for relative luminescence units (RLU) counting using Glo-Max Multi Detection System (Promega). RLU values from each well were elaborated using the GraphPad v5.0 software to calculate the IC50 of each compound.

[9] = system: NIH Catalogue Number: 12229; conditions: cited from earlier work; for Level of resistance: NNRTI resistant strain 12229; for Fold change: strain 12229, resistant virus IC50 to wild-type reference virus IC50 ratio, cut-off in brackets
[10] = system: NIH Catalogue Number: 12231; conditions: cited from earlier work; for Level of resistance: NNRTI resistant strain 12231; for Fold change: strain 12231, resistant virus IC50 to wild-type reference virus IC50 ratio, cut-off in brackets

In the case of COC(=O)N[C@H](C(=O)N[C@@H](Cc1ccccc1)[C@@H](O)CN(Cc1ccc(-c2ccccn2)cc1)NC(=O)[C@@H](NC(=O)OC)C(C)(C)C)C(C)(C)C [Atazanavir], the Level of resistance [1] is given as “High resistance”, the Fold change [1] is given as 110 (2.2^c) and the Level of resistance [2] is given as “High resistance”. For the same compound, the Fold change [2] was 90 (2.2^c).
For C[C@H](Cn1cnc2c(N)ncnc21)OCP(=O)(O)O [Tenofovir], the Level of resistance [3] is given as “High resistance”, the Fold change [3] is given as 2.3 (1.4^c) and the Level of resistance [4] is given as “High resistance”. For the same compound, the Fold change [4] was 1.5 (1.4^c).
In the case of CC(C)CN(C[C@@H](O)[C@H](Cc1ccccc1)NC(=O)O[C@H]1CO[C@H]2OCC[C@H]21)S(=O)(=O)c1ccc(N)cc1 [Darunavir], the Level of resistance [1] is given as “Susceptible”, the Fold change [1] is given as 5.2 (10^c) and the Level of resistance [2] is given as “High resistance”. The Fold change [2] was 127 (10^c).
For Cc1cn([C@H]2C[C@H](N=[N+]=[N-])[C@@H](CO)O2)c(=O)[nH]c1=O [Zidovudine], the Level of resistance [3] is listed as “High resistance”, the Fold change [3] is listed as 61 (1.9^b) and the Level of resistance [4] is listed as “High resistance”. The Fold change [4] was 24 (1.9^b).
For Nc1nc(NC2CC2)c2ncn([C@H]3C=C[C@@H](CO)C3)c2n1 [Abacavir], the Level of resistance [3] is listed as “High resistance”, the Fold change [3] is listed as 7.7 (4.5^c) and the Level of resistance [4] is listed as “High resistance”. The Fold change [4] was 7.4 (4.5^c).
In the case of C[C@@H](NC(=O)c1nc(-c2nccc3[nH]ccc23)nc(O)c1O)C1CCCCC1 [Compound 85, (R)-N-(1-cyclohexylethyl)-5,6-dihydroxy-2-(1H pyrrolo[3,2-c]pyridin-4-yl)pyrimidine-4-carboxamide], the IC50 [5] is reported as 11.5 µM, the inhibition at 100 µM [5] is reported as greater than 25% and the IC50 [6] is reported as 2670 nM. For the same compound, the EMSA screening results [7] was “Positive (A compound showing >25% inhibition when tested at 100µM concentration is considered as "positive")” and the IC50 [8] was greater than 50000 nM.
In the case of Cc1ccnc2c1NC(=O)c1cccnc1N2C1CC1 [Nevirapine], the Level of resistance [9] is given as “High resistance”, the Fold change [9] is given as >200 (4.5^b) and the Level of resistance [10] is given as “High resistance”. The Fold change [10] was >200 (4.5^b).
For O=C1Nc2ccc(Cl)cc2[C@@](C#CC2CC2)(C(F)(F)F)O1 [Efavirenz], the Level of resistance [9] is listed as “High resistance”, the Fold change [9] is listed as >200 (3^b) and the Level of resistance [10] is listed as “High resistance”. The Fold change [10] was 90 (3^b).
For Cc1cc(C#N)cc(C)c1Oc1nc(Nc2ccc(C#N)cc2)nc(N)c1Br [Etravirine], the Level of resistance [9] is listed as “High resistance”, the Fold change [9] is listed as 6.8 (2.9^c) and the Level of resistance [10] is listed as “High resistance”. For the same compound, the Fold change [10] was 8.8 (2.9^c).
In the case of Cc1cccc(C)c1OCC(=O)N[C@@H](Cc1ccccc1)[C@@H](O)C[C@H](Cc1ccccc1)NC(=O)[C@H](C(C)C)N1CCCNC1=O [Lopinavir], the Level of resistance [1] is listed as “Intermediate resistance”, the Fold change [1] is listed as 36 (10^c) and the Level of resistance [2] is listed as “High resistance”. The Fold change [2] was 70 (10^c).
O=C(c1nc(-c2ccccn2)nc(O)c1O)N1CCC(c2ccccc2)CC1 [Compound 9, (5,6-dihydroxy-2-(pyridin-2-yl)pyrimidin-4-yl)(4-phenylpiperidin-1-yl)methanone] showed an IC50 [5] of 128 µM, an inhibition at 100 µM [5] greater than 25% and an IC50 [6] of 2000 nM. The EMSA screening results [7] was “Negative” and the IC50 [8] was 32900 nM.
For Nc1nc(=O)n([C@@H]2CS[C@H](CO)O2)cc1F [Emtricitabine], the Level of resistance [3] is given as “High resistance”, the Fold change [3] is given as >200 (3.5^c) and the Level of resistance [4] is given as “High resistance”. For the same compound, the Fold change [4] was >200 (3.5^c).
